Values of other authors as cited in patent publication US9339460B2, “Self-emulsifiable liquid florfenicol composition intended to be incorporated into the drinking water of livestock” (VIRBAC SA, priority 2007, dated 2016).

Details: in water

In the case of `CS(=O)(=O)c1ccc([C@@H](O)[C@@H](CF)NC(=O)C(Cl)Cl)cc1` [Florfenicol], the “"miscibility" of Florfenicol” value is listed as 12 g/L.
